Target: T1, human orexin-2 (hOX2) receptors (Homo sapiens, UniProt O43614)
T1 construct: expressed in transfected cells
T1 sequence (O43614 1-444): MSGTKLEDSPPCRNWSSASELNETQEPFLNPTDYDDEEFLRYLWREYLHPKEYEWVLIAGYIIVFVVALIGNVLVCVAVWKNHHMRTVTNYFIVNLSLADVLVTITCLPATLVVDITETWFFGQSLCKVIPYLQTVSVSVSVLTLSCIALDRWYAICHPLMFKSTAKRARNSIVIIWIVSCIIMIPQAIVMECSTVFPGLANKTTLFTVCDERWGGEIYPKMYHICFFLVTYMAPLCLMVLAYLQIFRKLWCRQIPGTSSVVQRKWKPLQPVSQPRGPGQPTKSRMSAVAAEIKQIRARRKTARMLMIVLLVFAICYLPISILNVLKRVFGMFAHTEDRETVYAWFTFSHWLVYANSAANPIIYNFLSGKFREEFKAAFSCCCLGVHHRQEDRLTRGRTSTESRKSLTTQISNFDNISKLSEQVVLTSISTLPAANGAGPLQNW
Assay: Intracellular Ca2+ mobilization assay (FLIPR), antagonism of orexin-A in CHO(dHFr-) cells expressing hOX2
Format: cell-based
Details: CHO(dHFr-)-OX2R cells; orexin-A at EC80 as agonist; Kb=IC50/(1+[A]/EC50); read-out: Kb (μM) OX2R (human)
Method: Intracellular Ca^2+ Mobilization Assay
The Chinese Hamster Ovary (dHFr−) mutant cell line stably expressing human orexin-1 (hOX1) or human orexin-2 (hOX2) receptors were maintained in Dulbecco's Modified Eagle Medium (1×) with GlutaMax™ 1, 4500 mg/L D-Glucose and Sodium Pyruvate (Catalog No. 31966-021, Invitrogen, Carlsbad, Calif.), 5% dialyzed fetal calf serum (Catalog No. 26400-044), 100 μg/ml penicillin and 100 μg/ml streptomycin. The cells were seeded at 5×10^4 cells/well in the poly-D-lysine treated, 96-well, black/clear-bottomed plates (Catalog No. BD356640, BD Biosciences, Palo Alto, Calif.). 24 h later, the cells were loaded for 1 h at 37° C. with 4 μM Flou-4 acetoxymethyl ester (Catalog No. F-14202, Molecular Probes, Eugene, Oreg.) in FLIPR buffer (1×HBSS, 20 mM HEPES, 2.5 mM Probenecid). Hanks' Balanced Salt Solution (HBSS) (10×) (catalog No. 14065-049) and HEPES (1M) (catalog No. 15630-056) were purchased from Invitrogen, Carlsbad, Calif. Probenecid (250 mM) (catalog No. P8761) was from Sigma, Buchs, Switzerland. The cells were washed five times with FLIPR buffer to remove excess dye and intracellular calcium mobilization, [Ca^2′]I were measured using a Fluorometric Imaging Plate Reader (FLIPR-96, Molecular Devices, Menlo Park, Calif.) as described previously (Malherbe et al., Mol. Pharmacol., 64, 823-832, 2003). Orexin A (catalog No. 1455, Toris Cookson Ltd, Bristol, UK) was used as agonist. Orexin A (50 mM stock solution in DMSO) was diluted in FLIPR buffer+0.1% BSA. The EC50 and EC80 values of orexin-A were measured daily from standard agonist concentration-response curves in CHO(dHFr−)-OX1R and -OX2R cell lines. All compounds were dissolved in 100% DMSO Inhibition curves were determined by addition of 11 concentrations (0.0001-10 μM) of inhibitory compounds and using EC80 value of orexin-A as agonist (a concentration which gave 80% of max agonist response, determined daily). The antagonists were applied 25 min (incubation at 37° C.) before the application of the agonist. Responses were measured as peak increase in fluorescence minus basal, normalized to the maximal stimulatory effect induced by EC80 value of orexin-A or orexin-B Inhibition curves were fitted according to the Hill equation: y=100/(1+(x/IC50)^nH), where nH=slope factor using Excel-fit 4 software (Microsoft).
Kb values were calculated according to the following equation Kb=IC50/(1+[A]/EC50) where A is the concentration of agonist added which is very close to agonist EC80 value, and IC50 and EC50 values were derived from the antagonist inhibition and orexin-A or B agonist curves, respectively.

| Kb [µM] | SMILES |
| --- | --- |
| 0.0788 | O=C(C1CCCN(S(=O)(=O)c2ccccc2Cl)C1)N1CCCC1c1ccc(F)cc1 (centres unmarked) [Example 3, [1-(2-Chloro-benzenesulfonyl)-piperidin-3-yl]-[2-(4-fluoro-phenyl)-pyrrolidin-1-yl]-methanone] |
| 0.02 | O=C(C1CCCN(S(=O)(=O)c2ccccc2Cl)C1)N1CCCC1c1ccccc1 (centres unmarked) [Example 7, [1-(2-Chloro-benzenesulfonyl)-piperidin-3-yl]-(2-phenyl-pyrrolidin-1-yl)-methanone] |
| 0.0219 | O=C(C1CCCN(S(=O)(=O)c2cccc(Cl)c2)C1)N1CCCC1c1ccccc1 (centres unmarked) [Example 8, [1-(3-Chloro-benzenesulfonyl)-piperidin-3-yl]-(2-phenyl-pyrrolidin-1-yl)-methanone] |
| 0.0226 | COc1ccccc1S(=O)(=O)N1CCCC(C(=O)N2CCCCC2c2ccccc2)C1 (centres unmarked) [Example 10, [1-(2-Methoxy-benzenesulfonyl)-piperidin-3-yl]-(2-phenyl-piperidin-1-yl)-methanone] |
| 0.0053 | COc1ccccc1S(=O)(=O)N1CCCC(C(=O)N2CCCC2c2ccccc2)C1 (centres unmarked) [Example 11, [1-(2-Methoxy-benzenesulfonyl)-piperidin-3-yl]-(2-phenyl-pyrrolidin-1-yl)-methanone] |
| 0.0138 | COc1ccc(Cl)cc1S(=O)(=O)N1CCCC(C(=O)N2CCCC2c2ccccc2)C1 (centres unmarked) [Example 14, [1-(5-Chloro-2-methoxy-benzenesulfonyl)-piperidin-3-yl]-(2-phenyl-pyrrolidin-1-yl)-methanone] |
| 0.0592 | COc1ccc(Cl)cc1S(=O)(=O)N1CCCC(C(=O)N2CCCCC2c2ccccc2)C1 (centres unmarked) [Example 16, [1-(5-Chloro-2-methoxy-benzenesulfonyl)-piperidin-3-yl]-(2-phenyl-piperidin-1-yl)-methanone] |
| 0.0113 | O=C(C1CCCN(S(=O)(=O)c2ccccc2Cl)C1)N1CCCC1c1ccccc1Cl (centres unmarked) [Example 17, [1-(2-Chloro-benzenesulfonyl)-piperidin-3-yl]-[2-(2-chloro-phenyl)-pyrrolidin-1-yl]-methanone] |

Same assay, conditions: Table 1; CHO(dHFr-)-OX2R cells; orexin-A at EC80 as agonist; Kb=IC50/(1+[A]/EC50); read-out: Kb hOx2

| Kb [µM] | SMILES |
| --- | --- |
| 0.118 | O=C(C1CCCN(S(=O)(=O)c2ccccc2Cl)C1)N1CCCCC1c1ccccc1 (centres unmarked) [Example 4, [1-(2-Chloro-benzenesulfonyl)-piperidin-3-yl]-(2-phenyl-piperidin-1-yl)-methanone] |
| 0.55 | O=C(C1CCCN(S(=O)(=O)c2cccc(Cl)c2)C1)N1CCCCC1c1ccccc1 (centres unmarked) [Example 5, [1-(3-Chloro-benzenesulfonyl)-piperidin-3-yl]-(2-phenyl-piperidin-1-yl)-methanone] |
| 0.756 | O=C(C1CCCN(S(=O)(=O)c2ccc(F)cc2)C1)N1CCCCC1c1ccccc1 (centres unmarked) [Example 6, [1-(4-Fluoro-benzenesulfonyl)-piperidin-3-yl]-(2-phenyl-piperidin-1-yl)-methanone] |
| 0.122 | COc1cccc(S(=O)(=O)N2CCCC(C(=O)N3CCCC3c3ccccc3)C2)c1 (centres unmarked) [Example 9, [1-(3-Methoxy-benzenesulfonyl)-piperidin-3-yl]-(2-phenyl-pyrrolidin-1-yl)-methanone] |
| 0.309 | O=C(C1CCCN(S(=O)(=O)c2ccccc2)C1)N1CCCCC1c1ccccc1 (centres unmarked) [Example 12, (1-Benzenesulfonyl-piperidin-3-yl)-(2-phenyl-piperidin-1-yl)-methanone] |
| 0.334 | O=C(C1CCCN(S(=O)(=O)c2ccc(F)cc2)C1)N1CCCC1c1ccccc1 (centres unmarked) [Example 13, [1-(4-Fluoro-benzenesulfonyl)-piperidin-3-yl]-(2-phenyl-pyrrolidin-1-yl)-methanone] |
| 0.258 | O=C(C1CCCN(S(=O)(=O)c2ccccc2)C1)N1CCCC1c1ccccc1 (centres unmarked) [Example 15, (1-Benzenesulfonyl-piperidin-3-yl)-(2-phenyl-pyrrolidin-1-yl)-methanone] |
| 0.75 | O=C(C1CCCN(S(=O)(=O)c2ccccc2Cl)C1)N1CCCC1c1ccc(Cl)c(Cl)c1 (centres unmarked) [Example 18, [1-(2-Chloro-benzenesulfonyl)-piperidin-3-yl]-[2-(3,4-dichloro-phenyl)-pyrrolidin-1-yl]-methanone] |
| 0.67 | O=C(C1CCCN(S(=O)(=O)c2ccccc2Cl)C1)N1CCCC1c1cc(Cl)cc(Cl)c1 (centres unmarked) [Example 19, [1-(2-Chloro-benzenesulfonyl)-piperidin-3-yl]-[2-(3,5-dichloro-phenyl)-pyrrolidin-1-yl]-methanone] |

Reference: patent US8691846B2, “Piperidine sulphonamide derivatives” (Hoffmann-La Roche, Inc., priority 2008, dated 2014)
